# Results taken from patent publication US7189701B1, “Tetrapeptide stimulating functional activity of neurons pharmacological agent based thereon and method of use thereof” (Sankt-Petersburgskaya Obschestvennaya Organizatsiya …, priority 1999, dated 2007).
# Residues, ends and D or L forms follow the SMILES beside them.
# Experiments:
# rats [1] = experiment: Toxic effects of neurotropic agents (apomorphine, haloperidol, nicotine, caffeine), spontaneous motional activity; format: in vivo
# Protocol: Investigated was the action of L-Ala-L-Glu-L-Asp-L-Pro tetrapeptide on the toxic effects of neurotropic agents of various pharmacological groups.
# In an hour after an intramuscular injection of saline (control) or L-Ala-L-Glu-L-Asp-L-Pro tetrapeptide (5 μg/kg) the rats were intraperitoneally administered toxic doses of different neuropharmacological agents (apomorphine, haloperidol, nicotine and caffeine). Thereby, the parameters of vertical (anxiety) and horizontal (locomotor activity) spontaneous motional activity were registered.
# [2] = test system: patients with remote complications of craniocerebral injury; experiment: Clinical trial in patients with remote complications of craniocerebral injury (proof test, EEG α-index, subjective indices); format: in vivo, human
# Protocol: The trial was conducted on 35 patients with remote complications of craniocerebral injury. They were divided into 3 groups: a control one (10 patients—standard treatment), a group under study (15 patients—standard treatment+1 μg of L-Ala-L-Glu-L-Asp-L-Pro tetrapeptide intramuscularly, daily for 10 days) and a comparison group (10 patients—standard treatment+Cerebrolysin). Remoteness of the suffered craniocerebral injury in the patients constituted 1 to 10 years. Decompensation of the posttraumatic process occurred in all the patients and was manifested in liquorodynamic disorder, neurocirculatory dystonia, cerebrofocal and psychopathologic syndromes.
# Effect of the treatment with L-Ala-L-Glu-L-Asp-L-Pro tetrapeptide on the patients' attention was assessed by the proof test before and after the treatment. Significant increase in the number of reviewed symbols and decreased number of mistakes was noted, which indicated enhanced attention and raised stability of attention promoted by the tetrapeptide action (Table 5).
# To assess the influence of L-Ala-L-Glu-L-Asp-L-Pro tetrapeptide on the cerebral bioelectric activity, a visual EEG (electroencephalography) test was carried out with its distribution on types and calculation of α-index before and after the treatment. EEG test was selectively performed in the patients from different groups showing most notable signs of disorder.
# Before the treatment patients pathologic (III, IV and V) types of EEG prevailed in all the groups. The III-rd EEG type was characterised by the presence of so-called “non-dominant” curve, alongside with a low amplitude rate (no higher than 30–35 μV), irregular or even absent α-activity. The IV-th EEG type was marked by an extremely emphasised rhythm regularity and blurred zonal differences. The V-th EEG type was represented with an irregular slow activity (amplitude exceeding 35 μV), sharp waves and paroxysmal discharges.
# rats [3] = experiment: Chronic toxicity, 6 months intramuscular; format: in vivo
# Protocol: Chronic toxicity of L-Ala-L-Glu-L-Asp-L-Pro (SEQ ID NO:1) tetrapeptide obtained by the claimed method was investigated by means of a long-term administration thereof to rats weighing 150–250 g. The animals were subject to daily intramuscular administration of the drug in doses 1 μg/kg, 0.1 mg/kg, 1 mg/kg in 0.5 ml of saline for 6 months. Animals' behaviour, food and water consumption, the state of hair integument and mucous membranes were registered. The animals were weighed daily for the first 3 months of the experiment and then—once a month. Haematological and biochemical investigations were conducted in 3 months after the onset of the drug administration and on the experiment completion. Functions of the cardiovascular system, liver, pancreas, kidneys and adrenal glands were assessed. After the treatment completion some animals were subject to pathomorphologic examination with the purpose to estimate the state of different sections of the brain and bone marrow, heart, aorta, lungs, liver, kidneys, endocrine and immune organs.
# [4] = 5 μg/kg intramuscular 1 hour before toxic dose of caffeine i.p.
# [5] = after treatment, added to conventional treatment
structure (smiles),measurement,setting,value
"C[C@H](N)C(=O)N[C@@H](CCC(=O)O)C(=O)N[C@@H](CC(=O)O)C(=O)N1CCC[C@H]1C(=O)O [L-Ala-L-Glu-L-Asp-L-Pro tetrapeptide, L-Alanyl-L-Glutamyl-L-Aspartyl-L-Proline] (H-AEDP-OH)","effect on apomorphine toxic effects (anxiety, locomotor activity)",rats [1]; 5 μg/kg intramuscular 1 hour before toxic dose of apomorphine i.p.,diminished anxiety and locomotor activity
same,effect on caffeine-induced anxiety,rats [1]; [4],lowered caffeine-induced anxiety
same,effect on locomotor activity after caffeine,rats [1]; [4],did not affect locomotor activity
same,"effect on haloperidol toxic effects (anxiety, locomotor activity)",rats [1]; 5 μg/kg intramuscular 1 hour before toxic dose of haloperidol i.p.,increased anxiety and locomotor activity
same,effect on nicotine toxic effects (anxiety),rats [1]; 5 μg/kg intramuscular 1 hour before toxic dose of nicotine i.p.,decreased the influence of nicotine on the animals' anxiety
same,Number of mistakes (proof test),[2]; [5],6.3 ± 1.1
same,Reviewed symbols (proof test),[2]; [5],2519.6 ± 105.3
same,α-index (EEG),[2]; [5],47.9 ± 3.1
same,"cases with improvement of subjective indices (memory, mental agility, headaches, emotional evenness, will activity, recovery after a night repose)","[2]; before vs after treatment, 1 μg intramuscularly daily for 10 days",71%
same,"side effects, chronic toxicity","rats [3]; intramuscular daily for 6 months, 1 μg/kg, 0.1 mg/kg, 1 mg/kg",absence of any side effects
same,"pathologic alterations (general state, peripheral blood indices, intrinsic organs, cardiovascular and respiratory systems, liver and kidney functions)",rats [3]; prolonged intramuscular administration to rats,no pathologic alterations
